Experimental findings from patent publication US9822373B2, “Mutant cells for protein secretion and lignocellulose degradation” (The Regents of the University of California, priority 2011, dated 2017) are described below.

Format in all cases: cell-based, Neurospora crassa
In experiment [1] the test system is cellobiohydrolase I (cbh-1, NCU07340). The experiment can be described thus: Quantitative RT-PCR of cbh-1 expression after 4 h induction with a carbon source. As for the experimental part: (§1) Strains were inoculated at an OD595 equal to 0.05 in 50 ml Vogel's salts with 2% (wt/vol) sucrose in a 250 ml Erlenmeyer flask and grown under constant light at 200 rpm for 16 hours. The biomass was then spun at 4000 rpm for 10 minutes and washed in Vogel's twice to remove any excess sucrose. The biomass was then added to a new 50 ml culture with 2% (wt/vol) sucrose, cellobiose (Sigma) or Avicel® PH 101 (Avicel®). Cultures were induced for 4 hours under constant light at 200 rpm. The culture biomass was then harvested by filtration over a Whatman glass microfiber filter (GF/F) on a Buchner funnel and washed with 50 ml Vogel's, biomass was flash frozen in liquid Nitrogen and stored at −80° C.
(§2) Total RNA from frozen samples was isolated using Zirconia/Silica beads (0.2 g, 0.5 mm diameter; Biospec) and a Mini-Beadbeater-96 (Biospec) with 1 mL TRIzol reagent (Invitrogen) according to manufacturer's instructions. Total RNA was further purified by digestion with TURBO DNA-free (Ambion) and an RNeasy kit (Qiagen). RNA integrity was checked by Nanodrop and agarose gel electrophoresis.
(§3) Quantitative RT-PCR was performed using the EXPRESS One-Step SYBR GreenER Kit (Invitrogen) and the StepOnePlus Real-Time PCR System (Applied Biosystems). Reactions were performed in triplicate with a total reaction volume of 10 ul including 300 nM each forward and reverse primers and 75 ng template RNA. Data Analysis was performed by the StepOne Software (Applied Biosystems) using Relative Quantitation/Comparative CT (ΔΔCT). Data was normalized to the endogenous control actin with expression on sucrose as the reference sample. Error bars indicate a 95% confidence interval. The RT-PCR primers were used as described in (Tian et al., 2009).
(§4) Conidia from strains were inoculated at an OD595 equal to 0.05 in 50 ml Vogel's salts (45) with 2% w/v sucrose in a 250 ml Erlenmeyer flask and grown under constant light at 200 rpm for 16 hours. Biomass was then spun at 4200 rpm for 10 minutes and washed in Vogel's salts twice to remove any excess sucrose. Biomass was then added to a new flask containing 50 ml Vogel's salts supplemented with 1% w/v sucrose, 0.2% w/v cellobiose (Sigma) or 1% w/v Avicel® PH 101 (Sigma). Cultures were induced for 4 hrs under constant light at 200 rpm. The culture biomass was then harvested by filtration over a Whatman glass microfiber filter (GF/F) on a Buchner funnel and washed with 50 ml Vogel's salts. […] Three independent biological duplicates (flasks) were evaluated for each time point. […]
(§5) Quantitative RT-PCR was performed using the EXPRESS One-Step SYBR GreenER Kit (Invitrogen) and the StepOnePlus Real-Time PCR System (Applied Biosystems). […] Data Analysis was performed by the StepOne Software (Applied Biosystems) using the Relative Quantitation/Comparative CT (ΔΔCT) setting. […]

Experiment [2] deals with endoglucanase 2 (eg-2 / gh5-1, NCU00762). The experiment can be described thus: Quantitative RT-PCR of eg-2/gh5-1 expression after 4 h induction with a carbon source. As for the experimental part:
as §1, §2, §3, §4, §5

Experiment [3] has as its system cellulase genes (cbh-1, gh5-1, gh6-2). As to the kind of experiment: Quantitative RT-PCR, cellulase gene expression stated for the genes together. As for the experimental part: Conidia from strains were inoculated at an OD595 equal to 0.05 in 50 ml Vogel's salts (45) with 2% w/v sucrose in a 250 ml Erlenmeyer flask and grown under constant light at 200 rpm for 16 hours. Biomass was then spun at 4200 rpm for 10 minutes and washed in Vogel's salts twice to remove any excess sucrose. […] Cultures were induced for 4 hrs under constant light at 200 rpm. The culture biomass was then harvested by filtration over a Whatman glass microfiber filter (GF/F) on a Buchner funnel and washed with 50 ml Vogel's salts. The biomass was flash frozen in liquid nitrogen and stored at −80° C. Three independent biological duplicates (flasks) were evaluated for each time point.
Total RNA from frozen samples was isolated using Zirconia/Silica beads (0.5 mm diameter; Biospec) and a Mini-Beadbeater-96 (Biospec) with 1 mL TRIzol reagent (Invitrogen) according to the manufacturer's instructions. The total RNA was further purified by digestion with TURBO DNA-free (Ambion) and an RNeasy kit (Qiagen). RNA concentration and integrity was checked by Nanodrop and agarose gel electrophoresis.
Quantitative RT-PCR was performed using the EXPRESS One-Step SYBR GreenER Kit (Invitrogen) and the StepOnePlus Real-Time PCR System (Applied Biosystems). Reactions were performed in triplicate with a total reaction volume of 10 μl including 300 nM each forward and reverse primers and 75 ng template RNA. Data Analysis was performed by the StepOne Software (Applied Biosystems) using the Relative Quantitation/Comparative CT (ΔΔCT) setting. Data was normalized to the endogenous control actin with expression on sucrose as the reference sample.

The mark [4] stands for this setting: WT strain, 2% carbon source, 4 h induction.
Setting [5] is: triple β-glucosidase mutant, 2% carbon source, 4 h induction.
[6] abbreviates: Δcre-1 strain, 4 h induction (Example 1).
The mark [7] stands for this setting: Δcre-1 strain, shifted from sucrose to 0.2% cellobiose for 4 hrs.

Molecules are shown by their SMILES.

Take `O=C[C@H](O)[C@@H](O)[C@H](O[C@@H]1O[C@H](CO)[C@@H](O)[C@H](O)[C@H]1O)[C@H](O)CO` [cellobiose]: the “induction for cbh-1 compared to relative expression on sucrose” value in experiment [1] (setting [4]) stood at 20 fold. For the same compound, the “cbh-1 increase in relative expression over expression on sucrose” value in experiment [1] (setting [5]) is recorded as 6,500 fold. In addition, the “increase in transcription of cbh-1 above expression on sucrose in the same strain” value in experiment [1] (setting [6]) is 600 fold. Also, the “induction of cbh-1” value in experiment [1] (setting [7]) is given as 3,000 fold. The “eg-2 relative expression compared to sucrose” value in experiment [2] (setting [4]) is given as “no change”. Besides, the “eg-2 increase in relative expression over expression on sucrose” value in experiment [2] (setting [5]) is 2,200 fold. Besides, the “increase in transcription of eg-2 above expression on sucrose in the same strain” value in experiment [2] (setting [6]) was determined as 80 fold. Also, in experiment [2] (setting [7]), the “induction of gh5-1” value is recorded as 500 fold. In experiment [3] (individual β-glucosidase deletion strains (Δgh1-1, Δgh3-3 or Δgh3-4), 4 hr induction, 0.2%), the “induction of cbh-1, gh6-2, or gh5-1 expression” value is “did not show a significant induction”. Besides, the “induction of lignocellulolytic genes” value in experiment [3] (wild-type N. crassa (WT) grown on the substance as sole carbon source) is “not induced”. In experiment [3] (Δgh1-1Δgh3-3 double mutant, 4 hr induction, 0.2%), the cellulase gene induction result was “showed some cellulase gene induction”.
